# Publication PMC5736709, “Unravelling the specificity and mechanism of sialic acid recognition by the gut symbiont Ruminococcus gnavus” (Nature Communications, 2017)
# pKd: −log10 of the molar value. Values joined by “and” are separate entries in the source; they are usually repeats but may differ in a detail not shown here. Equal entries are not always repeated. “Also recorded” adds a separate entry of the source. Where two headings read alike, the source gives them in different places.
# How the values were obtained:
# Set-up in all cases: species or system Ruminococcus gnavus ATCC 29149
# RgCBM40 [1] = molecular target: T1, RgCBM40 (Mediterraneibacter gnavus (Ruminococcus gnavus), UniProt A7B557); assay: STD NMR of sialoglycans with RgCBM40 WT; settings: 1 mM sialoglycan, 50 μM RgCBM40 WT, 288 K; 'exception' = monosaccharides for which binding was not detected
# T1 sequence (A7B557 entry or part of it): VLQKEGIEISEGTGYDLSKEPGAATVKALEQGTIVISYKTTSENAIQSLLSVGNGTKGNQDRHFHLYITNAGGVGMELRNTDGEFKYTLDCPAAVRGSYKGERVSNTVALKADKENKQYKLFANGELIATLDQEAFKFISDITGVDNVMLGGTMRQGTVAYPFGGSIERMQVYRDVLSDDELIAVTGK
# Description: ^1H and ^13C resonance assignment for all the sugars was performed on the bases of 1D ^1H, 2D DQF-COSY, TOCSY, HSQC and NOESY experiments run on the free ligands in unbuffered D2O, pH 7.0. For STD NMR experiments, all the samples consisted of 1 mM sialoglycans and 50 μM RgCBM40 (WT or I95A mutant) in D2O buffer solution of 10 mM Tris-d11 pH 7.8 and 100 mM NaCl (ligand: protein ratio 20:1). An STD pulse sequence that included 2.5 ms and 5 ms trim pulses and a 3 ms spoil gradient was used. Saturation was achieved applying a train of 50 ms Gaussian pulses (0.40 mW) on the f2 channel, at 0.60 p.p.m. (on-resonance experiments) and 40 p.p.m. (off-resonance experiments). The broad protein signals were removed using a 40 ms spinlock (T1ρ) filter. All the experiments were recorded at ^1H frequency of 800.23 MHz on a Bruker Avance III spectrometer equipped with a 5 mm probe TXI 800 MHz H-C/N-D-05 Z BTO, at 288 K. For all the sialoglycans in the presence of RgCBM40, an STD experiment with a saturation time of 2 s and a relaxation delay of 5 s was performed, as a first test for binding. For the confirmed binders, the STD NMR experiments were carried out at different saturation times (0.5, 1, 2, 3, 4 and 5 s) with 1 K scans and relaxation delay of 5 s, in order to obtain the binding epitope mapping. The resulting build-up curves for each proton were fitted mathematically to a mono-exponential equation (y = a×[1-exp(b×x)]), from which the initial slopes (a×b) were obtained. For each ligand, the binding epitope mapping was obtained by dividing the initial slopes by the one of the H7 proton of the corresponding sialic acid ring, to which an arbitrary value of 100% was assigned. This normalisation of the STD values allows the comparison across all the sialoglycans.
# RgCBM40 [2] = molecular target: T1, RgCBM40; assay: ITC of sialoglycans binding to RgCBM40 wild type; settings: RgCBM40 WT; for pKd: ITC in PBS, 115-230 μM protein in cell, syringe 10 mM sugar (25 mM for Neu5Ac), * = estimate only, Kd too high to determine
# Description: Isothermal titration calorimetry (ITC) experiments were performed using the PEAQ-ITC system (Malvern, Malvern, UK) with a cell volume of 200 µl. Prior to titration protein samples were exhaustively dialysed into PBS. The ligand was dissolved in the dialysis buffer. The cell protein concentration was 115 µM (except for mutant I95A where it was 173 µM and the wild-type interaction with 6′SL where it was 230 µM) and the syringe ligand concentration was 10 mM (25 mM for Neu5Ac). Controls with titrant (sugar) injected into buffer only were subtracted from the data. Analysis was performed using Malvern software, using a single-binding site model. The stoichiometry of binding sites was set to 1.0 as this was evident from the crystal structure. Quantitative and most qualitative experiments were carried out in triplicate.
# RgGH33 D282A = assay: Sialoglycan microarray binding of RgGH33 D282A; settings: RgGH33 D282A at 200 µg ml^−1
# Description: (§1) Glycan microarrays were fabricated using epoxide-derivatized slides as previously described. Printed glycan microarray slides were blocked by ethanolamine, washed and dried. Slides were then fitted in a multi-well microarray hybridisation cassette (AHC4X8S, ArrayIt, Sunnyvale, CA, USA) to divide into 8 subarrays. The subarrays were blocked with ovalbumin (1% w/v) in PBS (pH 7.4) for 1 h at room temperature, with gentle shaking. Subsequently, the blocking solution was removed and diluted protein samples of RgCBM40 and RgGH33 D282A with various concentrations were added to each subarray. After incubating the samples for 2 h at room temperature with gentle shaking, the slides were washed. Diluted anti-His-HiLyte Flour 555 antibodies in PBS were added to the subarrays, incubated for 1 h at room temperature, washed and dried. The microarray slides were scanned by Genepix 4000B microarray scanner (Molecular Devices Corp., Union City, CA, USA). The data analysis was performed using Genepix Pro 7.0 analysis software (Molecular Devices Corp.). It is important to note that glycans on the array with sialic acid O-acetyl groups undergo gradual losses of these labile ester groups. Therefore, definitive conclusions about 9-O-acetylation are only possible in instances wherein binding is exclusively to the O-acetylated sialoglycan spot, and not to the corresponding non-O-acetylated spot.
# RgCBM40 [3] = molecular target: T1, RgCBM40; assay: Sialoglycan microarray binding of RgCBM40; settings: for Binding of RgCBM40 on sialoglycan microarray: RgCBM40 at 20 µg ml^−1; for Binding intensity on sialoglycan microarray, fold less: RgCBM40, βR1-linked glycans
# Description: as §1
molecule,measurement,setting,value
"CC(=O)N[C@H]1C2OC(C(=O)O)(C[C@@H]1O)O[C@@H]2[C@H](O)CO (stereo partly drawn) [2,7-anhydro-Neu5Ac]",Binding to RgCBM40 detected by STD NMR,RgCBM40 [1],exception
"CC(=O)NC1C(O)CC(OC2C(O)C(O)OC(CO)C2O)(C(=O)O)OC1C(O)C(O)CO (stereo not drawn) [3′SGal, Neu5Acα3Gal]",Binding to RgCBM40 detected by STD NMR,RgCBM40 [1],detected
"O=C(CO)N[C@H]1[C@H]([C@H](O)[C@H](O)CO)O[C@@](O[C@H]2[C@@H](O)[C@@H](CO)O[C@@H](O[C@H]3[C@H](O)[C@@H](O)C(O)O[C@@H]3CO)[C@@H]2O)(C(=O)O)C[C@@H]1O (stereo partly drawn) [3′SLGc, Neu5Gcα3Lac]",Binding to RgCBM40 detected by STD NMR,RgCBM40 [1],detected
same,pKd,RgCBM40 [2]; Kd,2.57 and ~2.52
"CC(=O)N[C@H]1[C@H]([C@H](O)[C@H](O)CO)O[C@@](O[C@H]2[C@@H](O)[C@@H](CO)O[C@@H](O[C@H]3[C@H](O)[C@@H](NC(C)=O)C(O)O[C@@H]3CO)[C@@H]2O)(C(=O)O)C[C@@H]1O (stereo partly drawn) [3′SLN, Neu5Acα3LacNAcβ]",Binding to RgCBM40 detected by STD NMR,RgCBM40 [1],detected
same,Binding of RgGH33 D282A on sialoglycan microarray,RgGH33 D282A,interacted weakly
"CC(=O)N[C@H]1[C@H]([C@H](O)[C@H](O)CO)OC(OC[C@H]2OC(O)[C@H](O)[C@@H](O)[C@H]2O)(C(=O)O)C[C@@H]1O (stereo partly drawn) [6′SGal, Neu5Acα6 Gal]",Binding to RgCBM40 detected by STD NMR,RgCBM40 [1],detected
"O=C(CO)N[C@H]1[C@H]([C@H](O)[C@H](O)CO)O[C@@](OC[C@H]2O[C@@H](O[C@H]3[C@H](O)[C@@H](O)C(O)O[C@@H]3CO)[C@H](O)[C@@H](O)[C@H]2O)(C(=O)O)C[C@@H]1O (stereo partly drawn) [6′SLGc, Neu5Gcα6Lac]",Binding to RgCBM40 detected by STD NMR,RgCBM40 [1],detected
same,pKd,RgCBM40 [2]; Kd,~1.96 and < 2.00
"CC(=O)N[C@H]1[C@H]([C@H](O)[C@H](O)CO)O[C@](OC[C@H]2O[C@@H](O[C@H]3[C@H](O)[C@@H](NC(C)=O)C(O)O[C@@H]3CO)[C@H](O)[C@@H](O)[C@H]2O)(C(=O)O)C[C@@H]1O (stereo partly drawn) [6′SLN, Neu5Acα6LacNAc]",Binding to RgCBM40 detected by STD NMR,RgCBM40 [1],detected
"CC(=O)N[C@H]1[C@H]([C@H](O)[C@H](O)COC(C)=O)O[C@@](O[C@H]2[C@@H](O)[C@@H](CO)O[C@@H](OCCCN=[N+]=[N-])[C@@H]2O)(C(=O)O)C[C@@H]1O [Neu5,9Ac2α3GalβR1]",Binding of RgCBM40 on sialoglycan microarray,RgCBM40 [3],highest binding
O=C(CO)N[C@H]1[C@H]([C@H](O)[C@H](O)CO)OC(O)(C(=O)O)C[C@@H]1O (stereo partly drawn) [Neu5Gc],Binding to RgCBM40 detected by STD NMR,RgCBM40 [1],exception; also recorded: no interaction was observed
same,Binding to RgCBM40 (in words),RgCBM40 [2],weak binding
same,pKd,RgCBM40 [2]; read-out: Kd,~1.68 and ~1.70
"CC(=O)NC1C(O)CC(OC2C(O)C(CO)OC(OC3C(O)C(CO)OC(O)C3NC(C)=O)C2O)(C(=O)O)OC1C(O)C(O)CO (stereo not drawn) [STF, Neu5Acα3Galβ3GalNAc]",Binding of RgGH33 D282A on sialoglycan microarray,RgGH33 D282A,interacted weakly
CC(=O)NC1C(O)CC(OC2C(O)C(CO)OC(OC3C(O)C(CO)OC(OCCCN=[N+]=[N-])C3NC(C)=O)C2O)(C(=O)O)OC1C(O)C(O)CO (stereo not drawn) [STFαOC3H6N3],Binding to RgCBM40 detected by STD NMR,RgCBM40 [1],detected
"Neu5,9Ac2-TF9Ac2α2-3TF",Binding of RgCBM40 on sialoglycan microarray,RgCBM40 [3],bound
"Neu5,9Ac2α2-6Tn",Binding of RgCBM40 on sialoglycan microarray,RgCBM40 [3],bound
Neu5Acα2-3TF,Binding of RgCBM40 on sialoglycan microarray,RgCBM40 [3],bound
Neu5Acα2-6Tn,Binding of RgCBM40 on sialoglycan microarray,RgCBM40 [3],bound
Neu5Acα3Galβ3GalNAcβ3Lac,Binding of RgGH33 D282A on sialoglycan microarray,RgGH33 D282A,interacted weakly
Neu5Acα3Lacβ [GM3],Binding of RgGH33 D282A on sialoglycan microarray,RgGH33 D282A,interacted weakly
Neu5Acα6GalαOC3H6N3 [Neu5Ac-STn],Binding to RgCBM40 detected by STD NMR,RgCBM40 [1],detected
Neu5Gc9Acα3Galβ3GalNAcβR1 [Neu5Gc9Ac-TF],"Binding intensity on sialoglycan microarray, fold less",RgCBM40 [3],5–10 fold
Neu5Gcα3Galβ3GalNAcβR1 [Neu5Gc-TF],"Binding intensity on sialoglycan microarray, fold less",RgCBM40 [3],5–10 fold
Neu5Gcα6GalαOC3H6N3 [Neu5Gc-STn],Binding to RgCBM40 detected by STD NMR,RgCBM40 [1],detected
α2-3-sialylated Lewis X [3′SLX],Binding of RgCBM40 on sialoglycan microarray,RgCBM40 [3],bound
